# Results reported in patent publication US20260226037A1, “MICROTUBULE TARGETING AGENTS” (ARIEL SCIENTIFIC INNOVATIONS LTD., priority 2022, published 2026).
# “Also recorded” adds a separate entry of the source.
# Assays:
# HUVEC cells [1] = experiment: Disruption of pre-formed HUVEC capillary-like tubes; format: cell-based, human; details: tubes formed 4 hours, then 2 hours exposure
# Procedure: The analysis of the anti-vascular effect was performed by seeding HUVEC cells on Matrigel matrix, and incubated them until formation of capillary-like tubes, reminiscent of newly formed vessels after 4 hours.
# MM1.R cells = experiment: XTT cytotoxicity, MM1.R; format: cell-based; details: MM.1R; MM1.R, multiple myeloma, dexamethasone resistant; read-out: IC50
# Summary of the method: (§1)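 Cytotoxicity was measured by XTT assay in a panel of human tumor cell lines spanning haematological and solid cancers.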
# MM1.S cells = experiment: XTT cytotoxicity, MM1.S; format: cell-based; details: Homo sapiens, multiple myeloma, non-resistant, read-out: IC50
# Summary of the method: as §1
# HUVEC cells [2] = experiment: HUVEC wound scratch-healing migration assay; format: cell-based, human
# Source text: During angiogenesis, endothelial cells proliferate and migrate chemotactically towards angiogenic signals secreted by tumor cells.
# RPMI-LR5 cells = experiment: XTT cytotoxicity, RPMI-LR5; format: cell-based
# Summary of the method: as §1
# RPMI8226 cells = experiment: Cell cycle distribution by flow cytometry; format: cell-based
# Procedure: Cell cycle arrest is a shared consequence of MTAs treatment. The effects of cell cycle distribution were determined in RPMI8226 cells treated for 6 and 18 hours with a range of concentrations of the molecules. The cells were stained with propidium iodide and cell cycle distribution was measured using a cytoFLEX flow cytometer.
# RPMI-DOX40 cells = experiment: XTT cytotoxicity, RPMI-DOX40; format: cell-based
# Summary of the method: as §1
# RPMI8226 myeloma cells = experiment: Xenograft murine myeloma model, antitumor efficacy; format: in vivo, mice
# Procedure: In vivo anti-cancer efficacy of the molecules was evaluated in a xenograft murine myeloma model. Male SCID mice (6-8 weeks old) were maintained in accordance with Institutional Animal Care Use Committee guidelines. Mice were housed in the Animal Research Facility of Ariel University and experiments were performed in accordance with approved protocols. […] Mice were sacrificed when mean tumor volume of vehicle treated group reached 1500 mm3, or mice appeared moribund to prevent unnecessary morbidity. Mean tumor volume represents the average of tumor volume in each treatment group during the experiment. The weight of the tumors was measured at the end of the experiment and expressed as mean tumor weight per group. Body weight is expressed as mean body mice weight per group. The individual relative tumor volume (RTV) was defined as Vx/V1, where Vx is the mean tumor volume in mm3 at a given time and V1 at the start of treatment. Relative tumor volume is determined by calculating RTV (%) (mean RTV of treated group)/(mean RTV of control group)). Relative tumor volume inhibition is determined by calculating RTVI (%) (1-RTV %)
# NCI-H69 cells = experiment: XTT cytotoxicity, NCI-H69; format: cell-based; details: Homo sapiens; NCI-H69, small cell lung carcinoma, non-resistant
# Procedure: (§2) The cytotoxic activity of the novel family was evaluated against various tumor cells, including myeloma cells, acute lymphoblastic leukemia cells, acute monocytic leukemia cells, chronic myelogenous leukemia cells, pancreatic cancer cells, breast cancer cells, uterine sarcoma cells, cervix adenocarcinoma cells, ovary cancer cells, melanoma cells, osteosarcoma cells, prostate cancer cells, lung cancer cells, neuroblastoma cells and colorectal adenocarcinoma cells by XTT assay.
# A2780 cells = experiment: XTT cytotoxicity, A2780; format: cell-based; details: Homo sapiens; A2780, ovarian carcinoma, non-resistant
# Procedure: as §2
# [3] = system: MESA/SA and MES-SA/DX5, NALM6 and NALM6/ADR, RPMI8226 and RPMI-DO40 cells; experiment: Annexin / propidium iodide staining (apoptosis, necrosis); format: cell-based; details: 72 hours, graded concentrations
# MCF7 cells = experiment: XTT cytotoxicity, MCF7; format: cell-based; details: Homo sapiens; MCF7, breast adenocarcinoma, non-resistant
# Summary of the method: as §1
# NALM6 cells = experiment: XTT cytotoxicity, NALM6; format: cell-based; details: Homo sapiens, NALM-6; NALM6, acute lymphoblastic leukemia, non-resistant; read-out: IC50
# [4] = system: different cancer cell lines; experiment: XTT cytotoxicity, various tumor cells; format: cell-based; details: XTT assay
# Procedure: as §2
# MES-SA/DX5 cells = experiment: XTT cytotoxicity, MES-SA/DX5; format: cell-based
# Summary of the method: as §1
# [5] = system: colchicine binding site on tubulin protein; experiment: EBI competition assay, RPMI-8226 cells; format: cell-based; details: RPMI-8226 living cells
# [6] = system: colchicine binding site on tubulin protein; experiment: EBI competition assay, HELA cells; format: cell-based
# N6/ADR cells = experiment: XTT cytotoxicity, N6/ADR; format: cell-based
# [7] = Water solubility (microscope images); format: physicochemical; details: compared with benzene, furan, thiophene, thiazole or pyridine analogues
# Source text: Solubility of the synthesized molecules was compared to equivalent molecules having a benzene, furan, thiophene, thiazole or pyridine group instead of oxazole group (Table 2).
# RPMI 8226 cells = experiment: XTT cytotoxicity, RPMI 8226; format: cell-based; details: Homo sapiens; RPMI 8226, multiple myeloma, non-resistant; read-out: IC50
# Summary of the method: as §1
# A2780ADR cells = experiment: XTT cytotoxicity, A2780ADR; format: cell-based
# Procedure: as §2
# NCI-H69 VCR/R cells = experiment: XTT cytotoxicity, NCI-H69 VCR/R; format: cell-based
# Procedure: as §2
# [8] = system: acute lymphoblastic leukemia cells; experiment: XTT cytotoxicity, acute lymphoblastic leukemia cells; format: cell-based; details: lowest of the range
# Procedure: as §2
smiles,measurement,setting,value
"CCCCCOC(=O)c1[nH]c2c(c1C)C(=O)CC(c1ncco1)C2 (stereo not shown) [SMS077, pentyl 3-methyl-6-(oxazol-2-yl)-4-oxo-4,5,6,7-tetrahydro-1H-indole-2-carboxylate]",disruption of pre-formed capillary-like tube network,HUVEC cells [1],disrupted the integrity of the network in a dose dependent manner
same,IC50,MM1.R cells,36 nM
same,IC50,MM1.S cells,33 nM
same,wound healing density (HUVEC migration),HUVEC cells [2],decreased wound healing density in a dose and time dependent manner
same,IC50,"RPMI-LR5 cells; RPMI-LR5, multiple myeloma, melphalan resistant, read-out: IC50",19 nM
same,IC50 ratio between resistant and non-resistant cells,RPMI-LR5 cells; RPMI-LR5 / RPMI 8226,0.731
same,sensitivity of resistant subline vs parental cells,RPMI-LR5 cells; RPMI-LR5 vs RPMI8226 (RPMI-S),no difference in their sensitivity
same,cell cycle arrest,"RPMI8226 cells; 6 hours, IC50, IC50x2.5 and IC50x5 concentrations",cell cycle arrest in G2M phase
same,subG0 phase,RPMI8226 cells; 18 hours of treatment,increased in subG0 phase
same,IC50,"RPMI-DOX40 cells; RPMI-DOX40, multiple myeloma, P-gp overexpression, read-out: IC50",25 nM
same,IC50 ratio between resistant and non-resistant cells,RPMI-DOX40 cells; RPMI-DOX40 / RPMI 8226,0.962
same,sensitivity of resistant subline vs parental cells,RPMI-DOX40 cells; RPMI-Dox40 vs RPMI8226 (RPMI-S),no difference in their sensitivity
same,decrease of tumor volume as compared to vehicle at the same day,"RPMI8226 myeloma cells; day 8, intraperitoneally",0%
same,decrease of tumor volume as compared to vehicle at the same day,"RPMI8226 myeloma cells; day 11, intraperitoneally",40%
same,decrease of tumor volume as compared to vehicle at the same day,"RPMI8226 myeloma cells; day 25, intraperitoneally",52%
same,growth inhibition rate (tumor weight at end of experiment),RPMI8226 myeloma cells; intraperitoneally,54%
same,IC50,NCI-H69 cells,163 nM
same,IC50,A2780 cells,16 nM
same,"apoptosis and necrosis (annexin, propidium iodide staining)",[3],induced apoptosis and necrosis; also recorded: induces apoptosis and necrosis of treated cells
same,IC50,MCF7 cells,380 nM
same,IC50,NALM6 cells,19 nM
same,cytotoxic activity,[4],very potent cytotoxic activity against different cancer cell lines at low nanomolar levels
same,IC50,"MES-SA/DX5 cells; Homo sapiens, MES-SA/DX5, uterine sarcoma, P-gp overexpression",65 nM
same,IC50 ratio between resistant and non-resistant cells,MES-SA/DX5 cells; MES-SA/DX5 / MES-SA,0.508
same,prevention of covalent binding of EBI to the colchicine binding site,[5],prevented the covalent binding of EBI to the colchicine binding site
same,binding to the colchicine binding site,[6],bound to the colchicine binding site
same,IC50 ratio between resistant and non-resistant cells,N6/ADR cells; N6/ADR / NALM6,0.895
same,IC50,"N6/ADR cells; N6/ADR, acute lymphoblastic leukemia, P-gp overexpression, read-out: IC50",17 nM
same,water solubility,[7],better water solubility
same,IC50,RPMI 8226 cells,26 nM
same,IC50 ratio between resistant and non-resistant cells,A2780ADR cells; A2780ADR / A2780,1.938
same,resistance of cells to treatment,A2780ADR cells; A2780ADR ovary carcinoma cells,resistant to vincristine but not to SMS077 treatment
same,IC50,"A2780ADR cells; A2780 ADR, A2780ADR, ovarian carcinoma, resistant",31 nM
same,IC50,"NCI-H69 VCR/R cells; Homo sapiens, NCI-H69 VCR/R, vincristine resistant",48 nM
same,IC50 ratio between resistant and non-resistant cells,NCI-H69 VCR/R cells; NCI-H69 VCR/R / NCI-H69,0.294
same,resistance of cells to treatment,NCI-H69 VCR/R cells; NCI-H69 VCR/R lung carcinoma cells,resistant to vincristine but not to SMS077 treatment
same,IC50,[8],10 nM
